Measured values from patent US12383528B2, “Cromolyn esters and uses thereof” (The General Hospital Corporation, priority 2018, dated 2025).

How the values were obtained:
[1] = Brain positron emission tomography (PET) imaging study, dynamic PET; format: in vivo; conditions: rhesus monkey PET; for order of brain tracer penetration: three 18F-cromolyn analogs compared
Description: Dynamic PET imaging (GE Discovery MI Scanner) in a rhesus monkey was performed with compound 5 (diethyl ester), compound 6 (di-tert-butyl ester), and ^18F-Cromolyn (diacid).

[2] = Measured log D (lipophilicity); format: physicochemical

## O=C(O)c1cc(=O)c2c(OCC([18F])COc3cccc4oc(C(=O)O)cc(=O)c34)cccc2o1 [^18F-Cromolyn (diacid), reference compound]
[1]
  order of brain tracer penetration: diethyl ester>di-tert-butyl ester>diacid

## CC(C)(C)OC(=O)c1cc(=O)c2c(OCC([18F])COc3cccc4oc(C(=O)OC(C)(C)C)cc(=O)c34)cccc2o1 [Compound 6]
[1]
  order of brain tracer penetration: diethyl ester>di-tert-butyl ester>diacid
[2]
  logD: 3.5

## CCOC(=O)c1cc(=O)c2c(OCC([18F])COc3cccc4oc(C(=O)OCC)cc(=O)c34)cccc2o1 [Compound 5]
[1]
  regional brain uptake: uptake in all regions of the brain with the highest in putamen, grey matter and cerebellum followed by caudate, thalamus and white matter
  time of maximum brain uptake: 2 min
  washout from brain: washout was slow
  order of brain tracer penetration: diethyl ester>di-tert-butyl ester>diacid
[1]; at 2 min
  maximum brain uptake: 2.3 SUV
[1]; at 20 min
  brain uptake during washout: 2 SUV
[1]; at 60 min
  brain uptake during washout: 1.5 SUV
[2]
  logD: 2.5
